Test results published in PMC11678245, “The Molecular Basis of the Intrinsic and Acquired Resistance to Azole Antifungals in Aspergillus fumigatus” (Journal of Fungi, 2024).
Where “and” joins values, the source holds several entries; their conditions need not be identical. Equal values may be shown once. Read-outs that look alike come from different tables or passages of the source.

Columns and labels:
[1] = system: S. cerevisiae strain BR (AfCyp51B-6×His, AfCprA2-6×His); test: MIC80 susceptibility, strain BR; type: cell-based; conditions: Saccharomyces cerevisiae; Table 2; strain BR; SD pH 6.8, 48 h, 30 °C; ± SD; read-out: MIC80
Method: (§1) The susceptibilities of S. cerevisiae strains to antifungal drugs were determined as minimum growth inhibitory concentration (MIC) values in 200 μL SD pH 6.8 [24]. Serial 2-fold dilutions of 100 μL of azole or control drugs in SD pH 6.8 were prepared in a 96-well microtiter plate. A portion of a 2 mL SD pH 6.8 overnight culture of the test strain was inoculated into 3 mL fresh SD pH 6.8 and incubated for 4 to 6 h at 30 °C to generate logarithmic-phase cells. These cells were then diluted with fresh SD pH 6.8 to OD600nm = 0.01 (3 × 10^4 CFU), and 100 μL of this cell suspension was added to microtiter plate wells. Cell growth after 48 h incubation at 30 °C with shaking at 200 rpm was determined at 600 nm using a BioTek™ Synergy™ 2 multi-Mode microplate reader controlled using Gen5™ Data Analysis Software version 3.16.10 (BioTek Instruments, Winooski, VT, USA). MIC80 values (80% growth inhibition in the presence of the test drug compared with the untreated control) for each yeast construct were determined as technical triplicates repeated three times for three separate clones.

[2] = system: S. cerevisiae strain ADΔΔ (native ScCYP51); test: MIC80 susceptibility, host strain ADΔΔ; type: cell-based; conditions: Saccharomyces cerevisiae, Table 2, SD pH 6.8, 48 h, 30 °C
Method: as §1

[3] = system: S. cerevisiae strain ARE (AfCyp51A-6×His, AfCprA2, AfErg6-FLAG); test: MIC80 susceptibility, strain ARE; type: cell-based, Saccharomyces cerevisiae; conditions: Saccharomyces cerevisiae, strain ARE, ± SD, read-out: MIC80
Method: as §1

[4] = system: S. cerevisiae strain A (AfCyp51A-6×His, native ScCyp51 retained); test: MIC80 susceptibility, strain A; type: cell-based; conditions: Saccharomyces cerevisiae, Table 2, SD pH 6.8, 48 h, 30 °C
Method: as §1

[5] = system: S. cerevisiae strain AR (AfCyp51A-6×His, AfCprA2-6×His); test: MIC80 susceptibility, strain AR; type: cell-based, Saccharomyces cerevisiae
Method: as §1

[6] = system: S. cerevisiae strain ARE Y121F (AfCyp51A-6×His Y121F, AfCprA2, AfErg6-FLAG); test: MIC80 susceptibility, strain Y121F; type: cell-based, Saccharomyces cerevisiae; conditions: Saccharomyces cerevisiae, ± SD, read-out: MIC80
Method: as §1

[7] = system: S. cerevisiae strain ARE I301T (AfCyp51A-6×His I301T, AfCprA2, AfErg6-FLAG); test: MIC80 susceptibility, strain I301T; type: cell-based, Saccharomyces cerevisiae; conditions: Saccharomyces cerevisiae, ± SD, read-out: MIC80
Method: as §1

[8] = system: S. cerevisiae strain B (AfCyp51B-6×His, native ScCyp51 retained); test: MIC80 susceptibility, strain B; type: cell-based; conditions: Saccharomyces cerevisiae, Table 2, SD pH 6.8, 48 h, 30 °C
Method: as §1

[9] = system: S. cerevisiae strain ADLS overexpressing ScCYP51-6×His; test: MIC80 susceptibility, strain ADLS; type: cell-based, Saccharomyces cerevisiae; conditions: Saccharomyces cerevisiae; Table 2; strain ADLS; SD pH 6.8, 48 h, 30 °C; ± SD; read-out: MIC80
Method: as §1

AfCYP51B-6×His = target: T1, AfCYP51B-6×His (Aspergillus fumigatus, UniProt E9QY26); test: Type II binding of azole drugs (difference spectra); conditions: for ΔAmax (type II binding) / Kd: Hill equation; for Hill Number / Kd: type II binding
T1 sequence (E9QY26 1-524): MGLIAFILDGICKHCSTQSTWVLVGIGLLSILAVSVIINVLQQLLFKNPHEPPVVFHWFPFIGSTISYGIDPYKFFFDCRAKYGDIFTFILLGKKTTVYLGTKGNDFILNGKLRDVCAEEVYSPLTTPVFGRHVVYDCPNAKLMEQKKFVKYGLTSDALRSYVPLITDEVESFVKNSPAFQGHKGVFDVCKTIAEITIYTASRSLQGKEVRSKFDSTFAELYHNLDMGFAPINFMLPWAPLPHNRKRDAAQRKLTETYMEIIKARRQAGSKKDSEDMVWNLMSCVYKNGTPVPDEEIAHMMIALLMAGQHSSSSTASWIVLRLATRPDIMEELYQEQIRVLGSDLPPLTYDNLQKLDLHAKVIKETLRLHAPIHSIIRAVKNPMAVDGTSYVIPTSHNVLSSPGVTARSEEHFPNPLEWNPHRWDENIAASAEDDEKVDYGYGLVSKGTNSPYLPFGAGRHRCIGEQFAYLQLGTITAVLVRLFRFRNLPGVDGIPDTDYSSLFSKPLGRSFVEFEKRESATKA
Method: (§2) The concentration of AfCYP51A and AfCYP51B, purified using Ni-NTA affinity chromatography and used for the spectrophotometric type I and type II binding assays, was calculated using an extinction co-efficient of λ417nm = 117 mM^−1 cm^−1 applied to the absolute absorption spectrum of the preparations. In addition, the amount of “active” cytochrome P450 enzyme was determined using the carbon monoxide (CO) binding spectra of these preparations.
(§3) Type II binding difference spectra were obtained using 1 μM of affinity-purified CYP51 enzymes. VCZ, PCZ, VT-1161, DCZ, and MCF working solutions were prepared in DMSO, while FLC was prepared in Milli-Q water. Azole drugs were added to the sample cuvette, and corresponding amounts of DMSO or Milli-Q water were added to the reference cuvette. Drug binding curves were plotted using the difference spectrum peak and trough detected in the range of 410–425 nm. Dissociation constants (Kd) were determined by nonlinear regression (Levenberg–Marquardt algorithm) of the difference in absorbance between the peak and trough against the azole concentration using a rearrangement of the Morrison equation or the Hill equation [7]. GraphPad Prism 9.2.0 software was used to identify the best fit for the data.

AfCYP51A-6×His = AfCYP51A-6×His (Aspergillus fumigatus, UniProt Q4WNT5); test: as above; conditions: AfCYP51A
Method: as §2, §3

[10] = system: S. cerevisiae strain BRE (AfCyp51B-6×His, AfCprA2, AfErg6-FLAG); test: MIC80 susceptibility, strain BRE; type: cell-based, Saccharomyces cerevisiae; conditions: Saccharomyces cerevisiae, strain BRE, ± SD, read-out: MIC80
Method: as §1

[11] = system: S. cerevisiae strain ARE T289A (AfCyp51A-6×His T289A, AfCprA2, AfErg6-FLAG); test: MIC80 susceptibility, strain T289A; type: cell-based, Saccharomyces cerevisiae; conditions: for MIC80: Saccharomyces cerevisiae, ± SD, read-out: MIC80
Method: as §1

[12] = system: S. cerevisiae strain ARE Y121F T289A (AfCyp51A-6×His Y121F T289A, AfCprA2, AfErg6-FLAG); test: MIC80 susceptibility, strain Y121F T289A; type: cell-based, Saccharomyces cerevisiae; conditions: Saccharomyces cerevisiae, ± SD, read-out: MIC80
Method: as §1

[13] = Table 2, strain Y121F, SD pH 6.8, 48 h, 30 °C
[14] = 48 h, pH 6.8, Table 2, strain I301T, SD pH 6.8, 48 h, 30 °C
[15] = Table 2, SD pH 6.8, 48 h, 30 °C
[16] = 48 h, pH 6.8, Table 2, strain T289A, SD pH 6.8, 48 h, 30 °C
[17] = Table 2, strain Y121F T289A, SD pH 6.8, 48 h, 30 °C

Chain of AfCYP51A-6×His (Q4WNT5 whole entry): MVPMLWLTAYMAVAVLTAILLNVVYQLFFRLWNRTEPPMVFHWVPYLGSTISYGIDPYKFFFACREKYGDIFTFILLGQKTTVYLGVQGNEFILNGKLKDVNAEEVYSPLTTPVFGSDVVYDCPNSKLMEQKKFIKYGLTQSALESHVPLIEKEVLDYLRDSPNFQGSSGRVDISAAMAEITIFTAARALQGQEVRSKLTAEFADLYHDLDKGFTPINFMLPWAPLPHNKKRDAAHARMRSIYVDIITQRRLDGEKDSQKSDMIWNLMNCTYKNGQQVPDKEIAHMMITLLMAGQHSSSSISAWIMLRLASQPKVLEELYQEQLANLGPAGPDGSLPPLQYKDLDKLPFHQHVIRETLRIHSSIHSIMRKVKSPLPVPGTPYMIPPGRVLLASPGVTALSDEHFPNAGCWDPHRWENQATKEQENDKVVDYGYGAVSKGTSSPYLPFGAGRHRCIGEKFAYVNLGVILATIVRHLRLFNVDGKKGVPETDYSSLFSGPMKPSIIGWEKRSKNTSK

Row | SMILES | MIC80 [2] | MIC80 [4] | MIC80 [6, 13] | MIC80 [7, 14] | MIC80 [8] | λtrough (type II difference spectrum) (AfCYP51B-6×His; 1 μM enzyme) | ΔAmax (type II binding) (AfCYP51B-6×His; 1 μM enzyme) | Hill Number (AfCYP51B-6×His) | Kd (AfCYP51B-6×His; 1 μM enzyme) | MIC80 [10, 15] | MIC80 [11, 16] | MIC80 [12, 17] | further results
1 | CC[C@@H]([C@H](C)O)n1ncn(-c2ccc(N3CCN(c4ccc(OC[C@@H]5CO[C@@](Cn6cncn6)(c6ccc(F)cc6F)C5)cc4)CC3)cc2)c1=O [PCZ, posaconazole] | 0.1 ± 0.01 µM | 0.21 ± 0.01 µM | 0.06 ± 0.01 µM | 0.09 ± 0.02 µM | 0.25 ± 0.03 µM | 388 nm | 0.10 | 1.41 | 2100 nM and 2150 nM | 0.1 ± 0.01 µM | 0.06 µM | 0.11 ± 0.01 µM | MIC80 [1]: 0.17 ± 0.02 µM; MIC80 ([3]; Table 3): 0.05 ± 0.017 µM; MIC80 ([5]; Saccharomyces cerevisiae, 48 h, pH 6.8): 0.19 ± 0.01 µM; MIC80 ([5]; Table 2, strain AR, SD pH 6.8, 48 h, 30 °C, ± SD): 0.19 ± 0.02 µM; MIC80 ([6]; Table 3, strain ARE Y121F): 0.025 ± 0.003 µM; MIC80 ([7]; Table 3, strain ARE I301T): 0.055 ± 0.001 µM; MIC80 [9]: 0.29 ± 0.04 µM; λpeak (type II difference spectrum) (AfCYP51A-6×His; 1 μM enzyme): 423 nm; λtrough (type II difference spectrum) (AfCYP51A-6×His; 1 μM enzyme): 395 nm; ΔAmax (type II binding) (AfCYP51A-6×His; 1 μM enzyme, Hill equation): 0.07; Hill Number (AfCYP51A-6×His; type II binding): 1.35; Kd (AfCYP51A-6×His; type II binding, 1 μM enzyme, Hill equation): 1700 nM and 1720 nM; MIC80 ([10]; Table 3): 0.06 ± 0.037 µM; increase in susceptibility of strain T289A compared to strains ARE and ADΔΔ [11]: 40%; MIC80 ([11]; Table 3, strain ARE T289A): 0.043 ± 0.019 µM; MIC80 ([12]; Table 3, strain ARE Y121F T289A): 0.101 ± 0.017 µM
2 | O[C@@](Cn1cnnn1)(c1ccc(F)cc1F)C(F)(F)c1ccc(-c2ccc(OCC(F)(F)F)cc2)cn1 [VT-1161, oteseconazole] | 0.01 µM | 0.03 µM | 0.53 ± 0.02 µM | 0.14 ± 0.04 µM | 0.05 ± 0.01 µM | 391 nm | 0.11 | 0.87 | 3230 ± 2500 nM | 0.06 ± 0.01 µM | 0.02 µM | 1.07 ± 0.05 µM | MIC80 [3, 15]: 0.43 ± 0.05 µM; λpeak (type II difference spectrum) (AfCYP51B-6×His; 1 μM enzyme): 423 nm; greater susceptibility (MIC80) of strain T289A compared with strain ARE [11]: 21 fold
